Experimental findings from patent US20080312253A1, “Pharmaceutical compositions containing pyrazole derivatives for treating as serotonin antagonist” (KOREA INSTITUTE OF SCIENCE AND TECHNOLOGY, priority 2007, published 2008) are described below.

Data set [1] has as its target T1, serotonin 5-HT3A receptor (Homo sapiens, UniProt P46098).
T1 sequence (P46098 24-478): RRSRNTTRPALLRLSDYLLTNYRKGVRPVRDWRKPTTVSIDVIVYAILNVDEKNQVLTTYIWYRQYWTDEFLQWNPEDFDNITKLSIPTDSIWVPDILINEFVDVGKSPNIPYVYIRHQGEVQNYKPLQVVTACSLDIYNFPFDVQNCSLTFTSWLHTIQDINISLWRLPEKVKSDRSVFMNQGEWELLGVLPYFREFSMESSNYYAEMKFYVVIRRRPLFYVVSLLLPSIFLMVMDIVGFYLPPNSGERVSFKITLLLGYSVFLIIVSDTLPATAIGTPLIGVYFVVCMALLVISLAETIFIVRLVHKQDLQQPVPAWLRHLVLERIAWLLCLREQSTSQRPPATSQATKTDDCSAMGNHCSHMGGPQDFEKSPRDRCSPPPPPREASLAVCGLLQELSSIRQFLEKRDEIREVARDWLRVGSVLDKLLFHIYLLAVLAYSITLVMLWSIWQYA
Put plainly: Assay for 5-HT3A receptor: two-electrode voltage clamp of 5-HT-induced inward current in Xenopus oocytes expressing 5-HT3A receptor. Type of data set: cell-based. The note with it: inhibition of inward current (I5-HT) induced by 5-HT (1 μM), Xenopus laevis oocytes, from concentration-response curves; for IC50: read-out: IC50 (50% inhibitory concentration); for inhibition: read-out: maximum inhibition value (Vmax).

Turning to “1-Phenyl-3-{2-[4-(4-chlorobenzhydryl)piperazin-1-yl]ethyl}aminomethyl-5-toluylpyrazole [Compound 13]”, in data set [1], the “Hill coefficient (nH)” value was 2.2 ± 0.4, the “maximum inhibition value (Vmax)” value was determined as 73.1 ± 3.1 and the IC50 came to 8.2 ± 0.8 µM.

As for `Cc1cc(CNCCN2CCN(c3cccc(Cl)c3)CC2)[nH]n1` [Compound 2, 3-{2-[4-(3-Chlorophenyl)piperazin-1-yl]ethyl}aminomethyl-5-methylpyrazole], in data set [1], the “Hill coefficient (nH)” value is listed as 1.0 ± 0.1; the IC50 was 9.6 ± 1.1 µM; the inhibition (usually the drop in the measured response relative to a control, in per cent) is 90.6 ± 2.7%.

Turning to `CCCc1cc(CNCCN2CCN(c3ccc(Cl)cc3)CC2)nn1-c1ccccc1` [Compound 5, 1-Phenyl-3-{2-[4-(4-chlorophenyl)piperazin-1-yl]ethyl}aminomethyl-5-propylpyrazole], in data set [1], the “Hill coefficient (nH)” value is 1.5 ± 0.3, the IC50 is 1.3 ± 0.2 µM and the inhibition was 94.8 ± 4.8%.

`Cc1ccc(-c2cc(CNCCN3CCN(c4ccc(Cl)cc4)CC3)nn2-c2ccccc2)cc1` [Compound 12, 1,5-Diphenyl-3-{2-[4-(4-chlorophenyl)piperazin-1-yl]ethyl}aminomethyl-5-toluylpyrazole]: in data set [1], the IC50 came out at 2.2 ± 0.2 µM and the inhibition amounted to 95.5 ± 3.5%.

Regarding `Cc1ccc(-c2cc(CNCCN3CCN(c4ccc(Cl)cc4)CC3)nn2C(C)(C)C)cc1` [Compound 9], in data set [1], the IC50 is 2.4 ± 0.4 µM and the inhibition was determined as 103 ± 6.5%.

On to `CN1[C@@H]2CC[C@H]1C[C@@H](OC(=O)c1cc(Cl)cc(Cl)c1)C2` [MDL72222, reference compound], for which, in data set [1], the “Hill coefficient (nH)” value is recorded as 1.25 ± 0.27 and the inhibition turned out to be 99.6 ± 7.7%.

As for `Clc1ccc(N2CCN(CCNCc3cc(-c4ccc(N5CCCCC5)cc4)n(-c4ccccc4)n3)CC2)cc1` [Compound 10, 1-Phenyl-3-{2-[4-(4-chlorophenyl)piperazin-1-yl]ethyl}aminomethyl-5-4-(N-piperidyl)phenylpyrazole], in data set [1], the “Hill coefficient (nH)” value was 1.9 ± 0.1, the IC50 was 6.4 ± 0.3 µM and the inhibition came out at 95.9 ± 1.6%.

For the compound `CC(C)Cc1cc(CNCCN2CCN(c3ccc(Cl)cc3)CC2)nn1-c1ccccc1` [Compound 6, 1-Phenyl-3-{2-[4-(4-chlorophenyl)piperazin-1-yl]ethyl}aminomethyl-5-isobutylpyrazole], in data set [1], the “Hill coefficient (nH)” value was 1.2 ± 0.1, the IC50 was 2.8 ± 0.2 µM and the inhibition came out at 103 ± 2.5%.

Consider “1-t-Butyl-3-{2-[4-(4-chlorophenyl)piperazin-1-yl]ethyl}aminomethyl-5-propylpyrazole [Compound 4]”, for which, in data set [1], the “Hill coefficient (nH)” value turned out to be 1.4 ± 0.3, the “maximum inhibition value (Vmax)” value turned out to be 97.3 ± 5.6 and the IC50 was found to be 1.3 ± 0.3 µM.

In the case of `Clc1cccc(N2CCN(CCNCc3cc(-c4ccco4)n(-c4ccccc4)n3)CC2)c1` [Compound 1, 1-Phenyl-3-{2-[4-(3-chlorophenyl)piperazin-1-yl]ethyl}aminomethyl-5-(2-furyl)pyrazole], in data set [1], the “Hill coefficient (nH)” value is given as 1.5 ± 0.2, the IC50 is 9.4 ± 0.7 µM and the inhibition turned out to be 95.9 ± 2.8%.

Regarding “1-Phenyl-3-{2-[4-(4-chlorophenyl)piperazin-1-yl]ethyl}aminomethyl-5-methylpyrazole [Compound 3]”, in data set [1], the “Hill coefficient (nH)” value worked out at 1.4 ± 0.1, the “maximum inhibition value (Vmax)” value was 98.5 ± 1.2 and the IC50 stood at 2.5 ± 0.3 µM.

Take `Clc1ccc(N2CCN(CCNCc3cc(-c4ccco4)n(-c4ccccc4)n3)CC2)cc1` [Compound 8, 1-Phenyl-3-{2-[4-(4-chlorophenyl)piperazin-1-yl]ethyl}aminomethyl-5-(2-furyl)pyrazole]: in data set [1], the “Hill coefficient (nH)” value is given as 2.0 ± 0.2, the IC50 came to 4.3 ± 0.3 µM and the inhibition turned out to be 97.3 ± 2%.

`Clc1ccc(N2CCN(CCNCc3cc(-c4ccccc4)n(-c4ccccc4)n3)CC2)cc1` [Compound 11, 1,5-Diphenyl-3-{2-[4-(4-chlorophenyl)piperazin-1-yl]ethyl}aminomethyl-5-pyrazole]: in data set [1], the “Hill coefficient (nH)” value is given as 1.1 ± 0.1, the IC50 came out at 3.1 ± 0.3 µM and the inhibition amounted to 101 ± 2.6%.

For `CC(C)Cc1cc(CNCCN2CCN(c3ccc(Cl)cc3)CC2)nn1C(C)(C)C` [Compound 7, 1-t-Butyl-3-{2-[4-(4-chlorophenyl)piperazin-1-yl]ethyl}aminomethyl-5-isobutylpyrazole], the melting point – broadly, the temperature, or range, at which the solid turns liquid – fell in the range of 133 to 134 °C. Besides, in data set [1], the “Hill coefficient (nH)” value is listed as 1.4 ± 0.4, the IC50 stood at 3.3 ± 0.9 µM and the inhibition was 104 ± 3.5%.
